Source: publication PMC11323011, “Combatting Antibiotic-Resistant Staphylococcus aureus: Discovery of TST1N-224, a Potent Inhibitor Targeting Response Regulator VraRC, through Pharmacophore-Based Screening and Molecular Characterizations” (Journal of Chemical Information and Modeling, 2024)

Target: T1, VraRC (C-terminal DNA-binding domain of response regulator VraR) (Staphylococcus aureus, UniProt Q7A4R9)
T1 construct: residues 138-209), C-terminal His-tag
Experiment: LSPR (VraRC immobilized on NTA chip, […] fit); supported by 1H-15N HSQC NMR titration and FP inhibition of DNA binding (IC50 […])

T1 sequence (Q7A4R9 138-209): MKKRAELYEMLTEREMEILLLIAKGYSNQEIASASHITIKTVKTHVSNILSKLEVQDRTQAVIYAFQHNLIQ

## TST1N-224
  Kd: 23.4 ± 1.2 µM
